Experimental findings from US20220409576A1, “NANO-PARTICULATE COMPOSITIONS FOR STIMULATING HOST INNATE IMMUNE RESPONSES FOR THERAPEUTIC APPLICATIONS” (priority 2019, published 2022) are described below.

One assay relates to RAW 264.7 cells. The experiment in a line: Intracellular hydroxyl radical generation in RAW 264.7 cells. The assay is classed as cell-based. The note with it: RAW 264.7 cells with IONPs 3 mg/mL + VC 500 μM, BIP 500 μM, 24 h, FIG. 3B. As for the experimental part: A. The intracellular level of ferrous iron (Fe2+) in RAW 264.7 cells treated with IONPs (3 mg/mL) alone, IONPs with VC (500 μM), or IONPs with VC and BIP (iron chelator, 500 μM). B. The intracellular level of hydroxyl radical concentration in RAW 264.7 cells treated with IONPs (3 mg/mL) alone, IONPs with VC (500 μM), or in combination with BIP (500 μM) for 24 h. C. The bactericidal activity of RAW 264.7 cells treated with IONPs (3 mg/mL) with VC (500 μM), IONPs with VC and BIP (500 μM), or IONPs with VC and TIH (200 mM), assessed by antibiotic protection assay. *p<0.05, N=3-5 per group.
To further determine if the VC-mediated ROS generation and bactericidal activity were associated with a Fenton reaction due to increased release of Fe^2+, the levels of Fe^2+ were compared between RAW 264.7 cells treated with IONPs alone and IONPs with VC. […] Among various forms of ROS, hydroxyl radical ([…]) is highly cytotoxic by causing oxidative damage to DNA and cell membrane. In the Fenton reaction-mediated generation of ROS, the oxidation of Fe^2+ by hydrogen peroxide (H2O2) produces highly reactive hydroxyl radical.

The subject of the next assay is intracellular S. aureus. The experiment in a line: Bactericidal activity of RAW 264.7 macrophages against intracellular S. aureus (antibiotic protection assay, viable colony number). The assay is classed as cell-based, Staphylococcus aureus. The note with it: cells with IONPs 3 mg/mL + VC 500 μM plus chelator BIP 500 μM or scavenger THI 200 mM, FIG. 3C. The procedure: A. The quantification of ROS generation in the RAW 264.7 cells treated with varying concentration of IONPs (0-3 mg/mL). B. The colony number of viable bacteria (S. aureus) in the lysed RAW 264.7 macrophages treated with varying concentration of IONPs (0-3 mg/mL) following the exposure of live S. aureus.
(A-B) The quantification of ROS generation (A) and viable colony number of S. aureus (B) in the RAW 264.7 cells treated with VC (500 μM) alone, IONP (3 mg/mL) alone, or IONP (3 mg/mL)+VC (500 μM). (C-D) The quantification of ROS generation (C) and viable colony number of S. aureus (D) in the RAW 264.7 cells treated with IONP (3 mg/mL) alone, or IONP (3 mg/mL)+H2O2 (100 μM). E. Representative images of surviving S. aureus colony on agar plates from lysed RAW264.7 macrophages treated with H2O2 (100 μM), IONP (3 mg/mL), or IONP+H2O2. N=3-5 per group, *p<0.05
A. The intracellular level of ferrous iron (Fe2+) in RAW 264.7 cells treated with IONPs (3 mg/mL) alone, IONPs with VC (500 μM), or IONPs with VC and BIP (iron chelator, 500 μM). […] The bactericidal activity of RAW 264.7 cells treated with IONPs (3 mg/mL) with VC (500 μM), IONPs with VC and BIP (500 μM), or IONPs with VC and TIH (200 mM), assessed by antibiotic protection assay. *p<0.05, N=3-5 per group. […]

On to `c1ccc(-c2ccccn2)nc1` [BIP], for which the “IONPs and VC-induced generation of hydroxyl radicals” value with RAW 264.7 cells is “significantly decreased”. Besides, the “IONPs/VC-induced bactericidal activity of RAW 264.7 cells” value with intracellular S. aureus is reported as “decrease in bactericidal activity”.
